For this data set the following is noted: rat, in vivo. The protocol: Non self-emulsifying tocotrienol oily suspension was prepared by mixing tocotrienols rich fraction (TRF) and palm olein at a ratio of 1:1. The total tocotrienol administered per rat was equivalent to 10 mg/kg body weight. The single dose of ketoconazole (suspension in water) was administered at a dose of 32 mg/kg body weight.
The rats were fasted overnight for at least 12 hours before the study. During Phase 1, the rats in Group 1 were given only the tocotrienol oily suspension while Group 2 were given a single dose of ketoconazole half an hour prior to administration of tocotrienol. Phase 2 was carried out after 1 week of wash-out period. Blood samples were taken from the tail vein according to the following predetermined sampling interval. The blood levels of individual tocotrienol isomers at each time point was analysed using HPLC assay.

Consider `CC(=O)N1CCN(c2ccc(OCC3COC(Cn4ccnc4)(c4ccc(Cl)cc4Cl)O3)cc2)CC1` (stereo not shown) [Ketoconazole, ketoconazole], for which the “Increase in bioavailability compared with Control, Alpha-tocotrienol” value is given as 2.1-fold; the “Increase in bioavailability compared with Control, Delta-tocotrienol” value is on record as 2.6-fold; the “Increase in bioavailability compared with Control, Gamma-tocotrienol” value is on record as 3.0-fold. Further, the “Enhancement of bioavailability of tocotrienols compared to without ketoconazole” value (po) is on record as 2-3 folds.
